Experiments:
[1] = tested on: cysteine-containing peptide for DPRA; assay: Skin sensitization test (direct peptide reactivity assay, DPRA); settings: HPLC after 72±2 hours, relative value with result of Comparative Example 1 regarded as 100
Source text: The product 1, 3-butylene glycol in the present embodiment causes less skin sensitization. Here, the skin sensitization refers to the occurrence of an allergic reaction after the product 1, 3-butylene glycol comes into contact with the skin. In the evaluation of skin sensitization, it has been normal to use experimental animals, but the direct peptide reactivity assay (DPRA), which is an in Chemico test, was adopted as an alternative test in OECD guideline TG442C in 2015 from the viewpoint of animal welfare, and, in the present embodiment as well, the skin sensitization is evaluated by a test in which DPRA is used. In more detail, the skin sensitization is evaluated according to a method described in examples to be described below.
The product 1, 3-butylene glycols obtained in Examples 1 to 3 and Comparative Example 1 were evaluated for skin sensitization according to the following method.
15 mg of cysteine-containing peptide for DPRA manufactured by Scrum Inc. and 30 mL of a 0.05 M phosphate buffer were mixed together, thereby preparing a 0.05 M phosphate buffer solution containing 0.667 mM of the peptide (hereinafter, peptide solution). After one hour elapsed from the preparation of the peptide solution, 750 μL of the peptide solution and 250 μL of acetonitrile were put into each of three brown sample bottles for HPLC, thereby preparing three reference solutions. After two hours elapsed from the preparation of the reference solutions, 750 μL of the peptide solution, 200 μL of acetonitrile and 50 μL of 1, 3-butylene glycol were put into a separate brown sample bottle for HPLC, thereby preparing a specimen solution (specimen solution 1). Furthermore, after four hours elapsed and six hours elapsed from the preparation of the reference solutions, specimen solutions were prepared by the same operation (specimen solution 2 and specimen solution 3). Each of the three reference solutions and the specimen solutions (specimen solution 1, specimen solution 2 and specimen solution 3) was measured by an HPLC analysis after 72±2 hours elapsed from the preparation of each solution, and the three-time average value of the peak heights of peptide in each of the reference solutions and the specimen solutions was calculated. A peptide reduction percentage was calculated from the calculated three-time average value using the following formula (3) and regarded as an evaluation result.
In the present test, a specimen solution of the product 1, 3-butylene glycol of Comparative Example 1 that served as a reference and a specimen solution of the product 1, 3-butylene glycol of each of Examples 1 to 3 were each tested on the same day from the viewpoint of reproducibility.
Analysis device: Agilent 1260 InfinityII manufactured by Agilent Technologies, Inc. […]

Basic coloration test = format: physicochemical; settings: with water and potassium hydroxide, heat treatment at 90° C. for one hour, cooled to room temperature; spectral colorimeter
Source text: The product 1, 3-butylene glycol in the present embodiment has an advantage of not easily coloring under a basic condition. Coloration under a basic condition can be evaluated by a method described in examples to be described below (basic coloration test). The color saturation (b*) of the CIE color space (JIS Z 8729) when the product 1, 3-butylene glycol of the present embodiment has been evaluated by the method is not particularly limited; however, for example, the average value of three times of measurement is preferably 4.0 or less, more preferably 3.8 or less and particularly preferably 3.5 or less.
The product 1, 3-butylene glycols obtained in Examples 1 to 3 and Comparative Example 1 were evaluated for coloration under a basic condition according to the following method.
13 g of water and 2 g of potassium hydroxide were added to a 100 mL heat-resistant medium bottle and mixed together, and 6 g of the product 1, 3-butylene glycol, which was a subject, was further added thereto. Next, the heat-resistant medium bottle was immersed in a water bath, and a heat treatment was performed at 90° C. for one hour. After the solution that had been subjected to the heat treatment was cooled to room temperature, the color saturation (b*) of the solution was measured with a spectral colorimeter SE2000 manufactured by Nippon Denshoku Industries Co., Ltd. and regarded as a grade.

Compound: CC(O)CCO (centres unmarked) [Comparative Example 1, 1,3-butylene glycol]
- Relative value of peptide reduction percentage [1]: 100
- Color saturation (b*) (Basic coloration test): 19.6

Compound: CC(O)CCO (centres unmarked) [Example 1, 1,3-butylene glycol]
- Relative value of peptide reduction percentage [1]: 45
- Color saturation (b*) (Basic coloration test): 2.8

Compound: CC(O)CCO (centres unmarked) [Example 2, 1,3-butylene glycol]
- Relative value of peptide reduction percentage [1]: 43
- Color saturation (b*) (Basic coloration test): 3.2

Compound: CC(O)CCO (centres unmarked) [Example 3, 1,3-butylene glycol]
- Relative value of peptide reduction percentage [1]: 22
- Color saturation (b*) (Basic coloration test): 0.7
